Patent US11229636B2, “Substituted tetrahydroquinolinone compounds as ROR gamma modulators” (Aurigene Discovery Technologies Limited, priority 2015, dated 2022)

What was measured:
[1] = biological target: ROR gamma ligand binding domain (Homo sapiens (Human), UniProt P51449); assay: ROR gamma luciferase reporter assay (GAL4-ROR gamma LBD, HEK293 cells); assay type: cell-based; details: 48 hours treatment, read-out: RORγ luciferase Reporter assay: IC50 (nM) (in range)
Summary of the method: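 HEK293 cells were co-transfected with a GAL4 DBD–RORγ LBD fusion (hRluc vector) and a 9xGAL4 UAS luc2P reporter, then treated with compounds for 48 h. Bright-Glo luminescence was used to derive potency.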

RORγ LBD = RORγ LBD (Homo sapiens (Human), UniProt P51449); assay: ROR gamma radio-ligand binding assay (3H 25-Hydroxycholesterol competitive displacement, dextran charcoal method); details: for inhibition at 1 µM: 1 μM compound; for inhibition at 10 µM: 10 μM compound; for IC50: in range
Sequence of RORγ LBD (P51449 268-518): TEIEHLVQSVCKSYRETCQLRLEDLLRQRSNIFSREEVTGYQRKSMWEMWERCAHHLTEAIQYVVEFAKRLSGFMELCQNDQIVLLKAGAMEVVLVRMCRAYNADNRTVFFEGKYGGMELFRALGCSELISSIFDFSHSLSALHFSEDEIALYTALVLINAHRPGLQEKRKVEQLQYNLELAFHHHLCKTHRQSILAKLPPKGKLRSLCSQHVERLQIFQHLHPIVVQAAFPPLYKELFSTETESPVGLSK
Summary of the method: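 Human RORγ LBD (aa 247–497) was expressed as a GST fusion in E. coli and purified. For binding, 300 ng protein, 5 nM ³H-25-hydroxycholesterol and compound were incubated for 30 min at room temperature in 50 mM HEPES pH 7.5, 150 mM NaCl, 0.01% BSA and 5 mM MgCl2. After dextran-charcoal separation, the supernatant was counted and 10-point curves were fitted by variable-slope sigmoid.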

[2] = tested on: EL-4 murine lymphoma cell line; details: cited from earlier work

Sequence of ROR gamma ligand binding domain (P51449 269-508): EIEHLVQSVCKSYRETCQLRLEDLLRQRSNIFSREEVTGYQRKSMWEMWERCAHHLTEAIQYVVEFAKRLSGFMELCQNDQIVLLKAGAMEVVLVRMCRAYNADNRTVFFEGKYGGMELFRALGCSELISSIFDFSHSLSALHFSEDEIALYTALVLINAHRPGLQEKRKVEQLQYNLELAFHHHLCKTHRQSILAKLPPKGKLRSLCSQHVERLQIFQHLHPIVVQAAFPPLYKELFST

| Structure (SMILES) | IC50 [1] [nM] | inhibition at 1 µM (RORγ LBD) [%] | inhibition at 10 µM (RORγ LBD) [%] | IC50 (RORγ LBD) [nM] | synthesis of IL-17 [2] |
| --- | --- | --- | --- | --- | --- |
| CCS(=O)(=O)c1ccc(CC(=O)Nc2ccc3c(n2)CCC(C)(c2ccc(C(C)C)nn2)C3=O)cc1 (stereo not shown) [Compound 62, 2-(4-(ethylsulfonyl)phenyl)-N-(6-(6-isopropylpyridazin-3-yl)-6-methyl-5-oxo-5,6,7,8-tetrahydroquinolin-2-yl)acetamide] | > 500 | 96 | 91 | < 150 |  |
| CCS(=O)(=O)c1ccc(CC(=O)Nc2cc(C)c3c(n2)CCC(C)(c2ccc(O)cn2)C3=O)cc1 (stereo not shown) [Compound 88, 2-(4-(ethylsulfonyl)phenyl)-N-(6-(5-hydroxypyridin-2-yl)-4,6-dimethyl-5-oxo-5,6,7,8-tetrahydroquinolin-2-yl)acetamide] | > 500 | 86 | 90 | 150 to 300 |  |
| Cc1cc(NC(=O)Cc2ccc(S(C)(=O)=O)cc2)nc2c1C(=O)C(C)(c1ncccc1O)CC2 (stereo not shown) [Compound 89, N-(6-(3-hydroxypyridin-2-yl)-4,6-dimethyl-5-oxo-5,6,7,8-tetrahydroquinolin-2-yl)-2-(4-(methylsulfonyl)phenyl)acetamide] | > 500 | 53 | 79 | > 300 |  |
| CCS(=O)(=O)c1ccc(CC(=O)Nc2ccc3c(n2)CC(C)(C)C(c2ccc(O)cn2)C3=O)cc1 (stereo not shown) [Compound 90, 2-(4-(ethylsulfonyl)phenyl)-N-(6-(5-hydroxypyridin-2-yl)-7,7-dimethyl-5-oxo-5,6,7,8-tetrahydroquinolin-2-yl)acetamide] | > 500 | 57 | 84 | 150 to 300 |  |
| CCS(=O)(=O)c1ccc(CC(=O)Nc2ccc3c(n2)CC(C)C(c2ncccc2O)C3=O)cc1 (stereo not shown) [Compound 91, 2-(4-(ethylsulfonyl)phenyl)-N-(6-(3-hydroxypyridin-2-yl)-7-methyl-5-oxo-5,6,7,8-tetrahydroquinolin-2-yl)acetamide] | > 500 | 36 | 100 | > 300 |  |
| CCS(=O)(=O)c1ccc(CC(=O)Nc2ccc3c(n2)CCC(C)(c2ncc(Cl)n4ccnc24)C3=O)cc1 (stereo not shown) [Compound 92, N-(6-(5-chloroimidazo[1,2-a]pyrazin-8-yl)-6-methyl-5-oxo-5,6,7,8-tetrahydroquinolin-2-yl)-2-(4-(ethylsulfonyl)phenyl)acetamide] | 100 to 500 | 96 | 80 | < 150 |  |
| OC(c1ccc(-c2ccc(CN3CCN(Cc4ccncc4)CC3)cc2)c(F)c1)(C(F)(F)F)C(F)(F)F [SR2211] |  |  |  |  | suppress the synthesis of IL-17 |

Second part, led by results:

| IC50 [1] [nM] | inhibition at 1 µM (RORγ LBD) [%] | inhibition at 10 µM (RORγ LBD) [%] | IC50 (RORγ LBD) [nM] | Structure (SMILES) | synthesis of IL-17 [2] |
| --- | --- | --- | --- | --- | --- |
| < 100 | 66 | 73 |  | CCS(=O)(=O)c1ccc(CC(=O)Nc2ccc3c(n2)CCC(C)(c2ccc(C)s2)C3=O)cc1 (stereo not shown) [Compound 45, 2-(4-(ethylsulfonyl)phenyl)-N-(6-methyl-6-(5-methylthiophen-2-yl)-5-oxo-5,6,7,8-tetrahydroquinolin-2-yl)acetamide] |  |
| 100 to 500 | 93 | 82 | 150 to 300 | CCS(=O)(=O)c1ccc(CC(=O)Nc2ccc3c(n2)CCC(C)(c2nccn4c(C)cnc24)C3=O)cc1 (stereo not shown) [Compound 49, 2-(4-(ethylsulfonyl)phenyl)-N-(6-methyl-6-(3-methylimidazo[1,2-a]pyrazin-8-yl)-5-oxo-5,6,7,8-tetrahydroquinolin-2-yl)acetamide] |  |
| 100 to 500 | 91 | 90 | < 150 | CCS(=O)(=O)c1ccc(CC(=O)Nc2ccc3c(n2)CCC(C)(c2ccnc(C(C)C)n2)C3=O)cc1 (stereo not shown) [Compound 50, 2-(4-(ethylsulfonyl)phenyl)-N-(6-(2-isopropylpyrimidin-4-yl)-6-methyl-5-oxo-5,6,7,8-tetrahydroquinolin-2-yl)acetamide] |  |
| < 100 | 96 | 94 | < 150 | CCS(=O)(=O)c1ccc(CC(=O)Nc2ccc3c(n2)CCC(C)(c2ncc(OC)cn2)C3=O)cc1 (stereo not shown) [Compound 56, 2-(4-(ethylsulfonyl)phenyl)-N-(6-(5-methoxypyrimidin-2-yl)-6-methyl-5-oxo-5,6,7,8-tetrahydroquinolin-2-yl)acetamide] |  |
